Source: patent US7354940B2, “2,5-dioxoimidazolidin-4-yl acetamines and analogues as inhibitors of metalloproteinase mmp12” (AstraZeneca AB, priority 2002, dated 2008)

Biological target: T1, Recombinant human MMP12 catalytic domain (Homo sapiens, UniProt P39900)
T1 construct: Recombinant human MMP12 catalytic domain; made in house
Assay: Isolated enzyme assay (MMP12 enzyme assay)
Assay type: biochemical
Conditions: fluorogenic substrate Mac-Pro-Cha-Gly-Nva-His-Ala-Dpa-NH2, 60 minutes at room temperature, pH 7.3
Protocol: Recombinant human MMP12 catalytic domain may be expressed and purified as described by Parkar A. A. et al, (2000), Protein Expression and Purification, 20:152. The purified enzyme can be used to monitor inhibitors of activity as follows: MMP12 (50 ng/ml final concentration) is incubated for 60 minutes at room temperature with the synthetic substrate Mac-Pro-Cha-Gly-Nva-His-Ala-Dpa-NH2 in assay buffer (0.1M “Tris-HCl” (trade mark) buffer, pH 7.3 containing 0.1M NaCl, 20 mM CaCl2, 0.020 mM ZnCl and 0.05% (w/v) “Brij 35 ” (trade mark) detergent) in the presence (5 concentrations) or absence of inhibitors. Activity is determined by measuring the fluorescence at λex 320 nm and λem 405 nm. Percent inhibition is calculated as follows: % Inhibition is equal to the [Fluorescenceplus inhibitor−Fluorescencebackground] divided by the [Fluorescenceminus inhibitor−Fluorescenebackground].

T1 sequence (P39900 106-263 limits assumed): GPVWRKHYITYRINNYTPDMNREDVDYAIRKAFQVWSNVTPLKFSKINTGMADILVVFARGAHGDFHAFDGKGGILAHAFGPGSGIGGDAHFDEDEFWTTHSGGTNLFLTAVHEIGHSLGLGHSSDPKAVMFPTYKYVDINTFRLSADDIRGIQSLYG

O=C(CC1NC(=O)NC1=O)NCCc1ccc(-c2cc3ccccc3s2)cc1 (stereo not shown) [Example 27, N-[2-(4-Benzo[b]thiophen-2-yl-phenyl)ethyl]-2-(2,5-dioxoimidazolidin-4-yl)-acetamide]
IC50: 5 nM

O=C(CC1NC(=O)NC1=O)NCCc1ccc(-c2cc(Cl)cc(Cl)c2)cc1 (stereo not shown) [Example 21, N-[2-(3′,5′-Dichloro-biphenyl-4-yl)ethyl]-2-(2,5-dioxoimidazolidin-4-yl)-acetamide]
IC50: 8 nM

COc1cccc(-c2ccc(CCNC(=O)CC3NC(=O)NC3=O)cc2)c1 (stereo not shown) [Example 24, 2-(2,5-Dioxoimidazolidin-4-yl)-N-[2-(3′-methoxy-biphenyl-4-yl)ethyl]-acetamide]
IC50: 4 nM

CC(=O)c1ccc(-c2ccc(CCNC(=O)CC3NC(=O)NC3=O)cc2)cc1 (stereo not shown) [Example 26, N-[2-(4′-Acetyl-biphenyl-4-yl)ethyl]-2-(2,5-dioxoimidazolidin-4-yl)-acetamide]
IC50: 17 nM

Cc1cccc(-c2ccc(CCNC(=O)CC3NC(=O)NC3=O)cc2)c1 (stereo not shown) [Example 22, 2-(2,5-Dioxoimidazolidin-4-yl)-N-[2-(3′-methyl-biphenyl-4-yl)ethyl]-acetamide]
IC50: 15 nM

N#Cc1ccc(-c2ccc(CCNC(=O)CC3NC(=O)NC3=O)cc2)cc1 (stereo not shown) [Example 2, N-[2-(4′-Cyano-biphenyl-4-yl)-ethyl]-2-(2,5-dioxoimidazolidin-4-yl)-acetamide]
IC50: 7 nM

O=C(CC1NC(=O)NC1=O)NCCc1ccc(-c2ccc(F)cc2)cc1 (stereo not shown) [Example 1, 2-(2,5-Dioxoimidazolidin-4-yl)-N-[2-(4′-fluoro-biphenyl-4-yl)-ethyl]-acetamide]
IC50: 22 nM

O=C(CC1NC(=O)NC1=O)NCCc1ccc(-c2ccccc2)cc1 (stereo not shown) [Example 5, N-(2-Biphenyl-4-yl-ethyl)-2-(2,5-dioxoimidazolidin-4-yl)-acetamide]
IC50: 32 nM

O=C(CC1NC(=O)NC1=O)NCCc1ccc(-c2cc3ccccc3o2)cc1 (stereo not shown) [Example 23, N-[2-(4-Benzofuran-2-yl-phenyl)ethyl]-2-(2,5dioxoimidazolidin-4-yl)-acetamide]
IC50: 6 nM

O=C(CC1NC(=O)NC1=O)NCCc1ccc(-c2cccs2)cc1 (stereo not shown) [Example 14, 2-(2,5-Dioxoimidazolidin-4-yl)-N-[2-(4-thiophen-2-yl-phenyl)ethyl]-acetamide]
IC50: 6 nM
